# According to patent US7714014B2, “Targeting GLI proteins in human cancer by small molecules” (The Regents of the University of California, priority 2005, dated 2010):
# “Also recorded” adds a separate entry of the source.
# How the values were obtained:
# [1] = system: melanoma cell lines A375, G361, SK-Mel-2, SK-Mel-5, and SK-Mel-28; test: Dose titration, cell killing; format: cell-based, human; conditions: A375, 2-40 μM tested, 3 days; similar effect in G361, SK-Mel-2, SK-Mel-5, SK-Mel-28
# Protocol: Typically, the small molecule compounds of the present invention were dissolved in DMSO at a concentration of 30 mM. The small molecule compounds were then tested under cell culture conditions at different concentrations ranging from 0, 10, 30, 50, to 100 uM. To determine cell survival after treatment, the cells were incubated with the small molecule compounds in 6-well plates for about 3 days. After removal of the cell culture medium, 1-ml of 0.5% crystal violet solution (prepared in 20% ethanol and 20% methanol) was added to stain the cells for 5 min. Then the crystal violet solution was rinsed clean with tap water. Cell survival was estimated based on the density of crystal stained plates.
# Dose titration experiments of small molecule compound FN1-8 was performed using the melanoma cell lines A375, G361, SK-Mel-2, SK-Mel-5, and SK-Mel-28. A 375 cells were plated in 6-well plates and incubated with DM SO (control) or 2 μM, 5 μM, 10 μM, 20 μM, and 40 μM of FN1-8, respectively, for 3 days. A dramatic and dose-dependent cell killing in this cell line was observed when FN1-8 was added at 10 μM or more (data not shown). […]
# [2] = system: NSCLC A549 tumor; test: Mouse Xenograft Model (NSCLC A549); format: in vivo; conditions: 15 mg/kg daily 2×6 days then 30 mg/kg daily 1×6 days i.p.; 43 days after inoculation
# Protocol: (§1) The small molecule compound FN1-8 was tested in vivo in the mouse xenograft model bearing human cancer cells. Briefly, female athymic nude mice strain NCRNU-M (5-10 weeks old, 20-25 grams in weight; Taconic, Germantown, N.Y.) was maintained in pathogen-free conditions. Three human cancer cell lines: NSCLC H460, melanoma LOX, (both showing Gli3 activation), and colon cancer HT29 (no Gli3 activation, as a negative control), were used. Ten mice were used in each group and injected s.c. with 3×10^6 cancer cells in the dorsal area in a volume of 100 μl. After inoculation, human cancer cells were allowed to grow in mice for 7 days to become visible tumor nodules. Animals were then injected with small molecule compound FN1-8 at a dose of 50 mg/kg body weight (1 mg/mouse per day). DMSO alone was used as control. The compounds and controls were adjusted in 40 ul volume for i.p. injection in the abdomens of the mice. One mouse was sacrificed within 1 hour after the compound injection (after 6 injections) and its blood was collected. […] Tumor size was measured every three days, and tumor volumes were calculated using width (x) and length (y) (x^2y/2, where x<y). […]
# In vivo efficacy study ofFN1-8 in Mouse Xenograft Model (NSCLC A549) was also examined. […] 43 days after the initial tumor inoculation, tumors were dissected from the mice of each group and their weights were measured using a scale. […]
# [3] = system: cytosolic β-catenin in melanoma cell lines A375 and SK-Mel-5; test: Western blot of cytosolic β-catenin; format: cell-based, human; conditions: 10 μM or 20 μM
# Protocol: […] Protein concentrations were measured using Bio-Rad Protein Assay reagent. Whole cell lysate protein (5-20 ug) were boiled for 5 min and separated by 10-20% SDS-PAGE. Proteins were transferred to an Immobilon-P membrane (Millipore Corp., Bedford, Mass.) using semi-dry transfer cell (Bio-Rad; Benicia, Calif.). The membranes were blocked with 5% nonfat milk powder and 0.1% Tween 20 in Tris-buffer saline overnight at 4° C. and then incubated with primary antibody for 1 h at room temperature. Membranes were washed in 5% nonfat milk powder and 0.1% Tween 20 in Tris-buffer saline for three 10-min periods. Horseradish peroxidase-conjugated goat anti-rabbit or donkey anti-mouse antibodies were used as secondary antibodies. Proteins were visualized with chemiluminescence luminol reagents (Santa Cruz Bio-technology). Anti-Dvl-3, and anti-Survivin, antibodies were from Santa Cruz Biotechnology (Santa Cruz, Calif.). Anti-Caspase3 antibody was from Oncogene (Cambridge, Mass.). Anti-β-Actin antibody was from Sigrna-Aldrich Corp. (St. Louis, Mo.). Anti-β-catenin antibody was from Transduction Laboratories (Lexington, Ky.). Anti-Cytochrome c antibody was from BD Biosciences (San Diego, Calif.). For detecting alteration of β-catenin cytosolic extracts were prepared and examined as described previously in the publications from our lab. […]
# [4] = system: Melanoma LOX tumor; test: Mouse Xenograft Model (Melanoma LOX); format: in vivo; conditions: 50 mg/kg i.p. daily for 2×6 days
# Protocol: as §1, with “control.” for “control. The compounds and controls were adjusted in 40 ul volume for i.p. injection in the abdomens of the mice. One mouse was sacrificed within 1 hour after the compound injection (after 6 injections) and its blood was collected.”
# In vivo efficacy study of small molecule compound FN1-8 were performed using a Mouse Xenograft Model (Melanoma Lox). […] Tumor size and tumor volumes were calculated as described above.
# Three weeks after the initial tumor inoculation and the treatment as described above, tumors were dissected from the mice of each group and their weights were measured using a scale.
smiles,measurement,setting,value
"O=C(NCCc1ccc(O)cc1)C1C(c2ccccc2)=NN(c2ccccc2)C1c1ccccc1 (centres unmarked) [FN1-8, N-(2-(4-Hydroxyphenyl)ethyl)-1,3,5-triphenyl-4,5-dihydro-pyrazole-4-carboxyamide]",concentration at which dramatic and dose-dependent cell killing was observed,[1],≥ 10 µM
same,tumor weight,[2],decreased
same,cytosolic β-catenin level,[3],down-regulated
same,tumor growth,[4],dramatically suppressed; also recorded: significantly suppressed
same,tumor weight,[4]; three weeks after inoculation,dramatically decreased
